# Several values for one entry are separate records, joined by “and”; a condition that tells them apart may be missing. Equal values may be shown once. Inconclusive results and toxic doses are left out. Peptide text beside a SMILES is read from it.
# Tested on: L1210 leukemia ip in BDF1 mice, survival T/C
# Test: NCI In Vivo Anticancer Drug Screen. Data for tumor model L1210 Leukemia (intraperitoneal) in B6D2F1 (BDF1) mice
# Conditions: endpoint: mean survival time, higher = longer survival
# Outline: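 Antitumor effect is assessed in tumor-bearing animals. Survival in the compound arm is compared with a vehicle-dosed control arm and expressed as their quotient.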
# [1] = dose: 50.0 mg/kg/injection, schedule: Q04DX003 (ip), vehicle: saline with Tween-80
# [2] = dose: 100.0 mg/kg/injection, schedule: Q01DX001 (ip), vehicle: saline with Tween-80
# [3] = dose: 100.0 mg/kg/injection, schedule: Q04DX003 (ip), vehicle: saline with Tween-80
# [4] = dose: 200.0 mg/kg/injection, schedule: Q04DX003 (ip), vehicle: saline with Tween-80
# [5] = dose: 100.0 mg/kg/injection, schedule: Q01DX001 (ip), vehicle: saline
# [6] = dose: 50.0 mg/kg/injection, schedule: Q01DX009 (ip), vehicle: saline
# [7] = dose: 100.0 mg/kg/injection, schedule: Q01DX009 (ip), vehicle: saline
# [8] = dose: 200.0 mg/kg/injection, schedule: Q01DX009 (ip), vehicle: saline
# [9] = dose: 100.0 mg/kg/injection, schedule: Q01DX009 (ip), vehicle: saline with Tween-80
# [10] = dose: 200.0 mg/kg/injection, schedule: Q01DX009 (ip), vehicle: saline with Tween-80
# [11] = dose: 400.0 mg/kg/injection, schedule: Q01DX009 (ip), vehicle: saline with Tween-80
# [12] = dose: 400.0 mg/kg/injection, schedule: Q04DX003 (ip), vehicle: saline with Tween-80
compound,measurement,setting,value
COc1cc([N+](=O)[O-])ccc1S(=O)(=O)Cl,T/C,"dose: 25.0 mg/kg/injection, schedule: Q01DX009 (ip), vehicle: saline with Tween-80",91 % of control
same,T/C,"dose: 25.0 mg/kg/injection, schedule: Q04DX002 (ip), vehicle: saline with Tween-80",104 % of control
same,T/C,"dose: 25.0 mg/kg/injection, schedule: Q04DX003 (ip), vehicle: saline with Tween-80",97 % of control
same,T/C,"dose: 50.0 mg/kg/injection, schedule: Q01DX001 (ip), vehicle: saline with Tween-80",101 % of control
same,T/C,"dose: 50.0 mg/kg/injection, schedule: Q01DX009 (ip), vehicle: saline with Tween-80",91 % of control
same,T/C,"dose: 50.0 mg/kg/injection, schedule: Q04DX002 (ip), vehicle: saline with Tween-80",93 % of control and 120 % of control
same,T/C,[1],103 % of control
same,T/C,[2],92 % of control
same,T/C,[3],94 % of control
same,T/C,[4],88 % of control
COC1(OC)CC2C(=O)CCCC21OC (stereo not given),T/C,"dose: 100.0 mg/kg/injection, schedule: Q04DX002 (ip), vehicle: saline with Tween-80",100 % of control
same,T/C,"dose: 200.0 mg/kg/injection, schedule: Q04DX002 (ip), vehicle: saline with Tween-80",93 % of control
same,T/C,"dose: 400.0 mg/kg/injection, schedule: Q04DX002 (ip), vehicle: saline with Tween-80",97 % of control
CCCCOC(=N)Cc1cc(OC)c(OC)c(OC)c1,T/C,"dose: 75.0 mg/kg/injection, schedule: Q04DX003 (ip), vehicle: saline with Tween-80",98 % of control
same,T/C,"dose: 150.0 mg/kg/injection, schedule: Q04DX003 (ip), vehicle: saline with Tween-80",92 % of control
same,T/C,"dose: 300.0 mg/kg/injection, schedule: Q04DX003 (ip), vehicle: saline with Tween-80",98 % of control
CCc1ccc(N2C(N)=NC(N)=NC2(C)C)cc1,T/C,"dose: 25.0 mg/kg/injection, schedule: Q01DX001 (ip), vehicle: saline",104 % of control
same,T/C,"dose: 50.0 mg/kg/injection, schedule: Q01DX001 (ip), vehicle: saline",100 % of control
same,T/C,[5],105 % of control and 110 % of control
O=C1CCC2(CCC(=O)O2)O1,T/C,[6],100 % of control
same,T/C,[7],100 % of control
same,T/C,[8],92 % of control
C=CCS(=O)(=O)CC=C,T/C,[9],92 % of control
same,T/C,[10],92 % of control
same,T/C,[11],93 % of control
CCCCC/C(C)=N\Nc1ccccn1,T/C,"dose: 12.5 mg/kg/injection, schedule: Q01DX009 (ip), vehicle: Klucel (hydroxypropylcellulose) (HPC)",98 % of control
same,T/C,"dose: 25.0 mg/kg/injection, schedule: Q01DX009 (ip), vehicle: Klucel (hydroxypropylcellulose) (HPC)",100 % of control
same,T/C,"dose: 25.0 mg/kg/injection, schedule: Q01DX009 (ip), vehicle: acetone",97 % of control
same,T/C,"dose: 50.0 mg/kg/injection, schedule: Q01DX001 (ip), vehicle: acetone",100 % of control
same,T/C,"dose: 50.0 mg/kg/injection, schedule: Q01DX009 (ip), vehicle: Klucel (hydroxypropylcellulose) (HPC)",104 % of control
same,T/C,"dose: 50.0 mg/kg/injection, schedule: Q01DX009 (ip), vehicle: acetone",100 % of control
same,T/C,"dose: 50.0 mg/kg/injection, schedule: Q04DX003 (ip), vehicle: Klucel (hydroxypropylcellulose) (HPC)",95 % of control
same,T/C,[1],100 % of control
same,T/C,"dose: 100.0 mg/kg/injection, schedule: Q01DX001 (ip), vehicle: acetone",102 % of control
same,T/C,"dose: 100.0 mg/kg/injection, schedule: Q01DX009 (ip), vehicle: acetone",88 % of control
same,T/C,"dose: 100.0 mg/kg/injection, schedule: Q04DX003 (ip), vehicle: Klucel (hydroxypropylcellulose) (HPC)",101 % of control
same,T/C,[3],100 % of control
same,T/C,"dose: 200.0 mg/kg/injection, schedule: Q01DX001 (ip), vehicle: acetone",94 % of control
same,T/C,"dose: 200.0 mg/kg/injection, schedule: Q04DX003 (ip), vehicle: Klucel (hydroxypropylcellulose) (HPC)",106 % of control
CC(=O)Nc1cccc(NC(C)=O)n1,T/C,[3],94 % of control
same,T/C,[4],104 % of control
same,T/C,[12],100 % of control
COC1OC(CN2C(=O)c3ccccc3C2=O)C2OC(C)(C)OC12 (stereo not given),T/C,[3],106 % of control
same,T/C,[4],97 % of control
same,T/C,[12],96 % of control
O=C(CCN1CC1)Nc1cccc(NC(=O)CCN2CC2)c1,T/C,"dose: 2.5 mg/kg/injection, schedule: Q01DX001 (ip), vehicle: Klucel (hydroxypropylcellulose) (HPC)",112 % of control
same,T/C,"dose: 40.0 mg/kg/injection, schedule: Q01DX001 (ip), vehicle: Klucel (hydroxypropylcellulose) (HPC)",153 % of control
NNCC(F)(F)C(F)(F)C(F)(F)C(F)(F)C(F)(F)C(F)(F)C(F)(F)C(F)F,T/C,"dose: 100.0 mg/kg/injection, schedule: Q01DX009 (ip), vehicle: DMSO",91 % of control
same,T/C,"dose: 100.0 mg/kg/injection, schedule: Q04DX003 (ip), vehicle: DMSO",89 % of control
same,T/C,"dose: 200.0 mg/kg/injection, schedule: Q01DX009 (ip), vehicle: DMSO",92 % of control
same,T/C,"dose: 200.0 mg/kg/injection, schedule: Q04DX003 (ip), vehicle: DMSO",88 % of control
same,T/C,"dose: 400.0 mg/kg/injection, schedule: Q04DX003 (ip), vehicle: DMSO",94 % of control
Cc1ccccc1OCC(=O)Nc1ccc(-c2ccc(NC(=O)COc3ccccc3C)cc2)cc1,T/C,"dose: 100.0 mg/kg/injection, schedule: Q04DX002 (ip), vehicle: gum acacia",92 % of control
same,T/C,"dose: 200.0 mg/kg/injection, schedule: Q04DX002 (ip), vehicle: gum acacia",95 % of control
same,T/C,"dose: 400.0 mg/kg/injection, schedule: Q04DX002 (ip), vehicle: gum acacia",100 % of control
CSCCC(NC(=O)C(N)C(C)C)C(=O)O (stereo not drawn) (H-Val-Met-OH; configuration not given here),T/C,"dose: 100.0 mg/kg/injection, schedule: Q04DX003 (ip), vehicle: saline",100 % of control
same,T/C,"dose: 200.0 mg/kg/injection, schedule: Q04DX003 (ip), vehicle: saline",108 % of control
same,T/C,"dose: 400.0 mg/kg/injection, schedule: Q04DX003 (ip), vehicle: saline",103 % of control
CC1C(=O)OC2CC[N+]3([O-])CC=C(COC(=O)C(C)(O)C1(C)O)C23 (stereo not given),T/C,[5],96 % of control
same,T/C,"dose: 200.0 mg/kg/injection, schedule: Q01DX001 (ip), vehicle: saline",96 % of control
same,T/C,"dose: 400.0 mg/kg/injection, schedule: Q01DX001 (ip), vehicle: saline",102 % of control
CC1(C)CC(=O)C2=C(C1)OC1=C(C(=O)CC(C)(C)C1)C2c1ccccc1[N+](=O)[O-],T/C,[3],98 % of control
same,T/C,[4],88 % of control
same,T/C,[12],97 % of control
CC1=C(C)Cc2c(-c3ccccc3)oc(-c3ccccc3)c2C1,T/C,[2],94 % of control
same,T/C,"dose: 200.0 mg/kg/injection, schedule: Q01DX001 (ip), vehicle: saline with Tween-80",90 % of control
same,T/C,"dose: 400.0 mg/kg/injection, schedule: Q01DX001 (ip), vehicle: saline with Tween-80",90 % of control
Nc1ncnc(N)c1N=O,T/C,[6],107 % of control
same,T/C,[7],91 % of control
same,T/C,[8],101 % of control
Cc1ccc(Cl)c(NC(=O)c2ccccc2Cl)c1,T/C,"dose: 100.0 mg/kg/injection, schedule: Q04DX002 (ip), vehicle: Klucel (hydroxypropylcellulose) (HPC)",97 % of control
same,T/C,"dose: 200.0 mg/kg/injection, schedule: Q04DX002 (ip), vehicle: Klucel (hydroxypropylcellulose) (HPC)",97 % of control
same,T/C,"dose: 400.0 mg/kg/injection, schedule: Q04DX002 (ip), vehicle: Klucel (hydroxypropylcellulose) (HPC)",104 % of control
C=CCNC(=O)Oc1cccc(NC(=O)N(C)C)c1,T/C,[9],107 % of control
same,T/C,[10],109 % of control
same,T/C,[11],120 % of control
CN(C)C(=Nc1ccc(NC(=O)c2ccc(C(=O)Nc3ccc(N=C(Nc4ccccc4)N(C)C)cc3)cc2)cc1)Nc1ccccc1,T/C,"dose: 1.5 mg/kg/injection, schedule: Q01DX Z (ip), vehicle: carboxymethylcellulose (CMC)",95 % of control
same,T/C,"dose: 3.0 mg/kg/injection, schedule: Q01DX Z (ip), vehicle: carboxymethylcellulose (CMC)",97 % of control
same,T/C,"dose: 6.0 mg/kg/injection, schedule: Q01DX Z (ip), vehicle: carboxymethylcellulose (CMC)",107 % of control
same,T/C,"dose: 12.0 mg/kg/injection, schedule: Q01DX Z (ip), vehicle: carboxymethylcellulose (CMC)",89 % of control

# Reference: PubChem BioAssay AID248 (DTP/NCI, 2004)
